Laboratory results: patent EP1914304A1 (priority 1998, dated 1999)

Experiments:
[1] = biological target: HSV-1 thymidine kinase mutant TKF 105 (Leu-170 to Ile) (Human herpesvirus 1, UniProt P06478, L170I); test: Kinetics of AZT phosphorylation by purified TK (preliminary experiments); type: biochemical, Herpes Simplex Virus Type 1; settings: preliminary experiments with purified TKF 105 TK
Procedure: Briefly, crude bacterial extract was passed three times through a 7-mL bed-volume affinity column. The column was then washed sequentially using 30 mL each of buffer A [0.1 M Tris HCl, pH 7.5/5 mM dithiothreitol (DTT)/10% glycerol], buffer B (0.1M Tris-HCl, pH 7.5/0.5 M KCl/5 mM DTT/10% glycerol), and buffer A. TK was eluted using a 60-mL linear gradient of 0-600 µM dT in buffer C (0.3 M Tris HCl, pH 7.4/50 mM KCl/10% glycerol). Active fractions were pooled and dialyzed against three changes each of 2 liters of 50 mM Tris-HCl, pH 7.4/5 mM DTT/10% glycerol. Except in the final dialysis, all the above buffers contained 50 µg/mL of aprotinin and 2 µg/mL each of pepstatin and leupeptin.
Secondly, the kinetics of AZT phosphorylation by the two mutants was determined. Briefly, reactions were carried out in a final volume of 100 µl containing 50 mM Tris-HCl (pH 7.5), 5 mM ATP. […] The amount of radioactivity adsorbed to the disc was determined by scintillation spectroscopy. Km and Vmax values were determined by using the Cleland SUBIN program (Cleland, Methods Enz. 63:103-138, 1979). The values for kcat were calculated using the equation Vmax = kcat[E]0, where [E]o = total enzyme concentration. […]

[2] = test system: E. coli KY895 harboring HSV-1 TK mutant TKF 105 (Leu-170 to Ile); test: Negative selection on AZT-selection medium; type: cell-based; settings: 0.05 µg/mL of AZT, 1.0 µg/mL of dT
Text: (§1) This screen is based upon the premise that mutants with increased ability to phosphorylate AZT relative to dT would be unable to form colonies on the AZT-selection medium. In particular, the product, AZT monophosphate would be further phosphorylated by the host cell's nonspecific nucleotide kinases, or possibly by the mutant TK, incorporated into bacterial DNA by host DNA polymerases, terminate DNA synthesis, and thus prevent replication of the host chromosome.
(§2) Briefly, the TK mutants were first grown as individual colonies on TK-selection medium (1.0 µg/mL of dT), and then replica plated onto AZT-selection medium (0.05 µg/mL of AZT, 1.0 µg/mL of dT). All other components in the AZT-selection medium were the same as the TK-selection medium.

[3] = test system: E. coli KY895 harboring HSV-1 TK mutant TKI 208 (Leu-170 to Val); test: Negative selection on AZT-selection medium; type: cell-based; settings: 0.05 µg/mL of AZT, 1.0 µg/mL of dT
Text: as §1, §2

[4] = test system: BHK tk- cells transfected with pREP8D7:dualGFP expressing wild-type TK; test: ACV kill curves of transfectant pools; type: cell-based, baby hamster; settings: Mesocricetus auratus, Table VII
Text: (§3) The seven mutants were subcloned into the mammalian expression vector, pREP8D7:dualGFP. This vector contains a constitutive metallothionin promoter, which drives the expression of green flourescent protein (GFP), and an RSV LTR promoter, which stimulated expression of the TK mutants. The vector also contains a histidinol resistance gene for selection of transformants. Purified vector DNA of these constructs was used to transfect BHK tk- cells by electroporation. The transfectants were selected by resistance to histidinol and sorted using FACS analysis for GFP expression. Pools of transfectants were then assayed for sensitivity to GCV or ACV over a range of prodrug doses. […] Table VIII illustrates the IC50 values from Rat C6 kill curves with the SR11, SR26, and SR39 mutants.

[5] = test system: BHK tk- cells transfected with pREP8D7:dualGFP expressing TK mutant SR26; test: ACV kill curves of transfectant pools; type: cell-based, baby hamster; settings: Mesocricetus auratus, Table VII
Text: as §3

[6] = test system: BHK tk- cells transfected with pREP8D7:dualGFP expressing TK mutant SR39; test: ACV kill curves of transfectant pools; type: cell-based, baby hamster; settings: Mesocricetus auratus, Table VII
Text: as §3

[7] = test system: Rat C6 cells expressing TK mutant SR26; test: Rat C6 kill curves with GCV and ACV; type: cell-based; settings: Table VIII
Text: as §3

[8] = test system: Rat C6 cells expressing TK mutant 411; test: Rat C6 kill curves with GCV and ACV; type: cell-based; settings: Table VIII
Text: as §3

[9] = test system: Rat C6 cells expressing wild-type TK; test: Rat C6 kill curves with GCV and ACV; type: cell-based; settings: Table VIII
Text: as §3

[10] = test system: Rat C6 cells expressing TK mutant SR39; test: Rat C6 kill curves with GCV and ACV; type: cell-based; settings: Table VIII
Text: as §3

[11] = test system: Rat C6 cells expressing TK mutant 30; test: Rat C6 kill curves with GCV and ACV; type: cell-based; settings: Table VIII
Text: as §3

[12] = test system: Rat C6 cells expressing TK mutant SR11; test: Rat C6 kill curves with GCV and ACV; type: cell-based; settings: Table VIII
Text: as §3

[13] = test system: Rat C6 cells expressing TK mutant 75; test: Rat C6 kill curves with GCV and ACV; type: cell-based; settings: Table VIII
Text: as §3

[14] = biological target: T1, HSV-1 thymidine kinase mutant 75 (LIF-ALL library, codons 159-161 and 168-170 randomized; pET23d:75) (Human herpesvirus 1, UniProt P0DTH5); settings: Table V
T1 sequence (P0DTH5 1-376): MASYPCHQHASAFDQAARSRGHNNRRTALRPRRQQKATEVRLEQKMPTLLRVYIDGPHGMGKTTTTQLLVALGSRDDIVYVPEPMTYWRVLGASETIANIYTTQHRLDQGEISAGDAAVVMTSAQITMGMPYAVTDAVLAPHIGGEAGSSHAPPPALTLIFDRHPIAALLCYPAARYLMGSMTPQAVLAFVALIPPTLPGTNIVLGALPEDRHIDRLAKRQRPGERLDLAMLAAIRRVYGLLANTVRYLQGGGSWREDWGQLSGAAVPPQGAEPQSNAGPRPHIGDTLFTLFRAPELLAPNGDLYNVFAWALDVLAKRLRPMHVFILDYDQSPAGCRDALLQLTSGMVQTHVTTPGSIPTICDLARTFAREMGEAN
Procedure: The culture is incubated at 37°C overnight. The following day the 5ml culture is used to inoculate 1L M9ZB + cabenicillin at 20µg/ml and the culture allowed to grow at 37°C to OD600 0.1. At that point IPTG is added to 0.4mM and the culture incubated a further 3 hours. The cells are chilled on ice, pelleted by centrifugation and the pellets washed once in cell wash buffer (50mM Tris, pH 7.5, 5mM EDTA, 10% sucrose) prior to freezing the pellets at -70°C. The next day the cells are resuspended in 12ml Buffer 1 (50mM Tris, pH 7.5, 10% sucrose, 2mM DTT, 5mM EDTA, 1mM PMSF) and the volume split into two 13ml Oakridge ultracentrifuge tubes. 1ml Buffer 1 containing 3mg lysozyme is added to each tube and the tubes left on ice for 1 hr. […] The cleared supernatant is then aliquoted and frozen at -70°C.
The 1ml bed volume column is prepared by passing 10ml Buffer 1 followed by 10ml Absorption Buffer (50mM Tris, pH 7.5, 10% sucrose, 2mM DTT, 25mM MgAc2, 10mM ATP) over the column. Two ml of the cleared lysate is mixed with 2 ml of Absorption Buffer and passed through a 0.2µm filter. This mix is passed over the column 3 times. The column is washed with 5ml Absorption buffer three times and the 5ml fractions collected. […] The column is reactivated by loading on 10ml High Salt Buffer (50mM Tris, pH 7.5, 10% sucrose, 2mM DTT, 0.5M KCl) and 10ml 50mM Tris, pH 7.5. The column is stored in 50mM Tris pH 7.5 + 0.004% sodium azide. The extent of purification is monitored by Coomassie stained SDS:PAGE analysis and the concentration of purified protein determined using the BioRad Reagent (Bradford Reagent).
Km and Vmax values are determined from double reciprocal plots and kcat values are calculated using the equation Vmax = kcat [Eo] where [Eo] is the total enzyme concentration. The BioRad reagent was used to determine the total enzyme concentration of purified thymidine kinase enzymes.

HSV-1 thymidine kinase mutant TKF 105 (Leu-170 to Ile), sequence (P06478 whole entry L170I): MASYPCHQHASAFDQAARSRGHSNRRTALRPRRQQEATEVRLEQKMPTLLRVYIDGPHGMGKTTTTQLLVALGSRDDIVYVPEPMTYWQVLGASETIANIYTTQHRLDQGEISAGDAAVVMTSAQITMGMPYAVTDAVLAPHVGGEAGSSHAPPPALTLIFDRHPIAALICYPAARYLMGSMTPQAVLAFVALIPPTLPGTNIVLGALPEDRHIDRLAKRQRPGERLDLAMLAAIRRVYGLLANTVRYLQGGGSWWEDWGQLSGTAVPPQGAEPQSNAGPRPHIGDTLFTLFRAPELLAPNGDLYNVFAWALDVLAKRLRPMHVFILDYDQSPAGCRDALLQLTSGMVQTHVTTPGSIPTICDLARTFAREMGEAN

Compound | Km [1] | colony formation on AZT-selection medium [2] | colony formation on AZT-selection medium [3] | IC50 [4] | IC50 [5] | IC50 [6] | IC50 [7] | IC50 [8] | IC50 [9] | IC50 [10] | IC50 [11] | IC50 [12] | IC50 [13] | Km ([14]; double reciprocal plots) | kcat ([14]; per active site)
Cc1cn([C@H]2C[C@H](N=[N+]=[N-])[C@@H](CO)O2)c(=O)[nH]c1=O [AZT, 3' azido-3' thymidine] | 3.7 µM | not on the AZT-selection medium | not on the AZT-selection medium |  |  |  |  |  |  |  |  |  |  |  | 
Nc1nc2c(ncn2COCCO)c(=O)[nH]1 [acyclovir] |  |  |  | 200 nM | 35 nM | 30 nM | 760 nM | 14000 nM | > 20000 nM | 110 nM | 260 nM | 6000 nM | > 20000 nM | 23 µM | .010 s⁻¹
